Assay results: patent publication US5135912A, “Natriuretic peptides from the pituitary prohormone proopiomelanocortin” (Tosoh Corporation, priority 1988, dated 1992)
Where no end group is shown, it is not given here.

System: rats
Assay: Natriuretic and diuretic effect of intravenous bolus injection in anesthetized rats
Format: in vivo, rat
Conditions: 30 to 60 min after minus 30 to 0 min before injection, mean ± SEM
Method: Diuretic and natriuretic activity of the peptides of this invention is assayed in male rats of the Sprague-Dawley or Long-Evans strains. Peptide or vehicle (for control purposes) is administered by intravenous bolus injection or by continuous infusion into one renal artery of animals anesthetized for the duration of the experiment, or by intramuscular or subcutaneous injection into animals only briefly anesthetized with ether and subsequently conscious and freely moving until completion of the experiment. Timed urine samples are collected for determination of volume and measurement of sodium and potassium concentration by flame photometry. Details of each method are given in Examples II to IV below.
The natriuretic and diuretic effect of intravenous bolus injection of peptides F15R, G13R and E19R was tested in male Sprague-Dawley or Long-Evans rats weighing 300-400 g. The animals were given Inactin®, 120 mg per kg body weight i.p. under light ether anesthesia. Following placement of a tracheal cannula, the right femoral vein was catheterized for infusion of 5% bovine serum albumin at a dose of 0.4% of body weight and at a rate of 6.0 ml/hour. Subsequently, normal saline was infused for the duration of the experiment at a rate of 2.0 ml/hour. The bladder was exposed through an abdominal incision and catheterized for urine collection. Serial 15-minute urine collections in preweighed vials were begun after a recovery period of 45 minutes. After collection of four control samples, the peptide in 0.1 ml of vehicle was injected into the femoral vein over a period of 1 minute and 6 to 10 further urine samples were collected. Urine volume was determined by weighing and urine sodium and potassium were assayed by flame photometry. All peptides produced natriuresis and diuresis reaching peak levels usually between 30 and 60 minutes after injection. The difference between urine volume and sodium excretion observed from 30 to 60 minutes after and 30 to 0 minutes before peptide administration was calculated for each rat as a measure of activity.

## GNGDEQPLTPNPR [G13R]
i.v. bolus 0.100 nmol
  Change in Sodium Excretion: 8.39 ± 4.41 μeq/30 minutes
  Change in Urine Volume: 80.0 ± 29.2 μl/30 minutes
i.v. bolus 1.00 nmol
  Change in Sodium Excretion: 12.48 ± 6.22 μeq/30 minutes
  Change in Urine Volume: 62.0 ± 17.2 μl/30 minutes
